# Source: US9085555B2, “Complement pathway modulators and uses thereof” (priority 2011, dated 2015)
# Target: Factor D (Homo sapiens (Human), UniProt P00746)
# Assay: biochemical
# Assay type: biochemical
# Conditions: read-out: IC50
# Sequence of Factor D (P00746 26-253): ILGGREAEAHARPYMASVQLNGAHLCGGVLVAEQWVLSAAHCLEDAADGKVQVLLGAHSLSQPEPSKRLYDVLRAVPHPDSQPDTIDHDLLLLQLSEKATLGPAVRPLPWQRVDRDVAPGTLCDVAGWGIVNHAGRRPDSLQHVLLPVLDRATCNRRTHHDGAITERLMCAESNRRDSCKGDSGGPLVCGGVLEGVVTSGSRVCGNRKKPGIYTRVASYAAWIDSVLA
row,SMILES,IC50
1,"NC(=O)c1cn(CC(=O)N2C[C@H](F)C[C@H]2C(=O)NCc2cccc(Cl)c2F)c2ccc(Cl)cc12 [Example 488, 5-Chloro-1-{2-[(2S,4R)-2-(3-chloro-2-fluoro-benzylcarbamoyl)-4-fluoro-pyrrolidin-1-yl]-2-oxo-ethyl}-1H-indole-3-carboxylic acid amide]",250 nM
2,"NC(=O)c1cn(CC(=O)N2C[C@H](F)C[C@H]2C(=O)NCc2cccc(Cl)c2F)c2c(Cl)cccc12 [Example 489, 7-Chloro-1-{2-[(2S,4R)-2-(3-chloro-2-fluoro-benzylcarbamoyl)-4-fluoro-pyrrolidin-1-yl]-2-oxo-ethyl}-1H-indole-3-carboxylic acid amide]",124 nM
3,"COC[C@@]12C[C@@H](C(=O)NCc3cccc(Cl)c3F)N(C(=O)Cn3cc(C(C)=O)c4cccnc43)[C@@H]1C2 [Example 490, (1R,3S,5S)-2-[2-(3-Acetyl-pyrrolo[2,3-b]pyridin-1-yl)-acetyl]-5-methoxymethyl-2-aza-bicyclo[3.1.0]hexane-3-carboxylic acid 3-chloro-2-fluoro-benzylamide]",214 nM
4,"NC(=O)c1cn(CC(=O)N2C[C@H](F)C[C@H]2C(=O)NCc2cccc(Cl)c2F)c2cc(Cl)ccc12 [Example 491, 6-Chloro-1-{2-[(2S,4R)-2-(3-chloro-2-fluoro-benzyl-carbamoyl)-4-fluoro-pyrrolidin-1-yl]-2-oxo-ethyl}-1H-indole-3-carboxylic acid amide]",28 nM
5,"NC(=O)c1cn(CC(=O)N2C[C@H](F)C[C@H]2C(=O)NCc2cccc(Cl)c2F)c2cc(F)c(F)cc12 [Example 492, 1-{2-[(2S,4R)-2-(3-Chloro-2-fluoro-benzylcarbamoyl)-4-fluoro-pyrrolidin-1-yl]-2-oxo-ethyl}-5,6-difluoro-1H-indole-3-carboxylic acid amide]",237 nM
6,"COc1cnc2c(c1)c(C(C)=O)cn2CC(=O)N1[C@@H]2C[C@@H]2C[C@H]1C(=O)NCc1cccc(Cl)c1F [Example 494, (1R,3S,5R)-2-[2-(3-Acetyl-5-methoxy-pyrrolo[2,3-b]pyridin-1-yl)-acetyl]-2-aza-bicyclo [3.1.0]hexane-3-carboxylic acid 3-chloro-2-fluoro-benzylamide]",50 nM
7,"O=C(NCc1cccc(Cl)c1F)[C@@H]1C[C@H]2C[C@H]2N1C(=O)Cn1cc(C(=O)C(F)(F)F)c2ccccc21 [Example 495, (1R,3S,5R)-2-{2-[3-(2,2,2-Trifluoro-acetyl)-indol-1-yl]-acetyl}-2-aza-bicyclo[3.1.0] hexane-3-carboxylic acid 3-chloro-2-fluoro-benzylamide]",19 nM
8,"C[C@@]1(F)C[C@@H](C(=O)NCc2cccc(Cl)c2F)N(C(=O)Cn2cc(C(N)=O)c3ccccc32)C1 [Example 496, 1-{2-[(2S,4R)-2-(3-Chloro-2-fluoro-benzylcarbamoyl)-4-fluoro-4-methyl-pyrrolidin-1-yl]-2-oxo-ethyl}-1H-indole-3-carboxylic acid amide]",176 nM
9,"COc1ccc2c(c1)c(C(N)=O)cn2CC(=O)N1C[C@H](F)C[C@H]1C(=O)NCc1cccc(Cl)c1F [Example 497, 1-{2-[(2S,4R)-2-(3-Chloro-2-fluoro-benzylcarbamoyl)-4-fluoro-pyrrolidin-1-yl]-2-oxo-ethyl}-5-methoxy-1H-indole-3-carboxylic acid amide]",128 nM
10,"CC(=O)c1cn(CC(=O)N2C[C@H](F)C[C@H]2C(=O)NCc2cc(C#N)cc(Cl)c2F)c2ccccc12 [Example 498, (2S,4R)-1-[2-(3-Acetyl-indol-1-yl)-acetyl]-4-fluoro-pyrrolidine-2-carboxylic acid 3-chloro-5-cyano-2-fluoro-benzylamide]",692 nM
11,"COc1ccc2c(C(N)=O)cn(CC(=O)N3C[C@H](F)C[C@H]3C(=O)NCc3cccc(Cl)c3F)c2c1 [Example 499, 1-{2-[(2S,4R)-2-(3-Chloro-2-fluoro-benzylcarbamoyl)-4-fluoro-pyrrolidin-1-yl]-2-oxo-ethyl}-6-methoxy-1H-indole-3-carboxylic acid amide]",36 nM
